US8883789B2, “Piperazine derivatives and their use as positive allosteric modulators of mGluR5 receptors” (Boehringer Ingelheim International GmbH, priority 2011, dated 2014)
pEC50: −log10 of the molar value.

Target: T1, human recombinant mGluR5 (Homo sapiens, UniProt P41594)
T1 construct: expressed in transfected cells; hygromycin and geneticin selection
Assay: positive modulation of mGluR5, calcium based FLIPR assay
Conditions: HEK 293 cell line expressing human recombinant mGluR5; Ca2+ peak height after glutamate at approximately 5% basal stimulation; nonlinear regression
Description: The positive modulation of mGluR5 is measured in a HEK 293 cell line expressing human recombinant mGluR5 and is detected with calcium based FLIPR assay. The cells are cultured with DMEM supplemented with 10% FCS, 2 μg/mL tetracycline, 100 μg/mL hygromycin and 500 μg/mL geneticin. The cell culture media is exchanged for tetracycline-free cell culture media 3-7 days before the assay. One day before the assay the cell culture medium is exchanged to DMEM without glutamine and phenol red and supplemented with 10% FCS, 100 μg/mL hygromycin and 500 μg/mL geneticin. On the assay day, the medium of the subconfluent cultures is removed and the cells are detached by addition of 2.5 ml EDTA (0.02%) per 175 cm2 culture flask for 1 minute. The cells are resuspend in Ringer solution (140 mM NaCl, 5 mM KCl, 2.5 mM CaCl2, 1.5 mM MgCl2, 5 mM Glucose, 10 mM Hepes; adjusted to pH 7.4 with NaOH), pooled and Ringer solution added to adjust the volume to 50 mL. The cell suspension is centrifuged for […] at 1500 U/min (425 g). The supernatant is removed and the cells washed a second time with 50 ml fresh Ringer solution and centrifuged again as before. The supernatant is again removed and the pellet resuspended in Ringer solution to 1,000,000 cells/ml (1×10^6 cells/mL). The cells are plated onto BD BioCoat Poly-D-Lysine 384 well plates (20.000 cells/well; 20 μl/well). The lid covered plates are then incubated until use at 37° C./10% CO2. For dye loading, 20 μl of Calcium-4 assay kit solution (prepared according to the manufacturer's description in Ringer solution) are added to the cells and the plates are incubated for 80 min 37° C. and then 10 min at room temperature.
Controls, Compound Dilution and Assay Execution:
Each assay plate contained wells with “high” and “low” controls:
Low controls 1% DMSO/ringer solution+basal glutamate activation (defined as 100% CTL).
High controls 10 μM CDPPB+basal glutamate activation (defined as 200% CTL).
Test compounds are dissolved and diluted in DMSO to 100-fold the desired concentrations. In a second step, the compounds are diluted in Ringer solution such that the compounds are 4-fold more concentrated than the desired final assay concentration. The final DMSO concentration was 1%.
20 μl of each compound solution are then transferred to the assay plate and the Ca2+ kinetic is measured to determine any intrinsic compound activity. After 5 min incubation in the FLIPR device, the second stimulation with 20 μl of glutamate in Ringer solution (glutamate concentration adjusted to approximately 5% basal stimulation of the maximal possible glutamate effect) is added and the kinetic Ca2+ response of the wells was measured for the modulation effect.
The peak height of the Ca release related fluorescence signal (9-66) is used for the EC50.
The EC50 of the modulation is calculated over a nonlinear regression with GraphPad Prism (Table 1).

T1 sequence (P41594 21-1212): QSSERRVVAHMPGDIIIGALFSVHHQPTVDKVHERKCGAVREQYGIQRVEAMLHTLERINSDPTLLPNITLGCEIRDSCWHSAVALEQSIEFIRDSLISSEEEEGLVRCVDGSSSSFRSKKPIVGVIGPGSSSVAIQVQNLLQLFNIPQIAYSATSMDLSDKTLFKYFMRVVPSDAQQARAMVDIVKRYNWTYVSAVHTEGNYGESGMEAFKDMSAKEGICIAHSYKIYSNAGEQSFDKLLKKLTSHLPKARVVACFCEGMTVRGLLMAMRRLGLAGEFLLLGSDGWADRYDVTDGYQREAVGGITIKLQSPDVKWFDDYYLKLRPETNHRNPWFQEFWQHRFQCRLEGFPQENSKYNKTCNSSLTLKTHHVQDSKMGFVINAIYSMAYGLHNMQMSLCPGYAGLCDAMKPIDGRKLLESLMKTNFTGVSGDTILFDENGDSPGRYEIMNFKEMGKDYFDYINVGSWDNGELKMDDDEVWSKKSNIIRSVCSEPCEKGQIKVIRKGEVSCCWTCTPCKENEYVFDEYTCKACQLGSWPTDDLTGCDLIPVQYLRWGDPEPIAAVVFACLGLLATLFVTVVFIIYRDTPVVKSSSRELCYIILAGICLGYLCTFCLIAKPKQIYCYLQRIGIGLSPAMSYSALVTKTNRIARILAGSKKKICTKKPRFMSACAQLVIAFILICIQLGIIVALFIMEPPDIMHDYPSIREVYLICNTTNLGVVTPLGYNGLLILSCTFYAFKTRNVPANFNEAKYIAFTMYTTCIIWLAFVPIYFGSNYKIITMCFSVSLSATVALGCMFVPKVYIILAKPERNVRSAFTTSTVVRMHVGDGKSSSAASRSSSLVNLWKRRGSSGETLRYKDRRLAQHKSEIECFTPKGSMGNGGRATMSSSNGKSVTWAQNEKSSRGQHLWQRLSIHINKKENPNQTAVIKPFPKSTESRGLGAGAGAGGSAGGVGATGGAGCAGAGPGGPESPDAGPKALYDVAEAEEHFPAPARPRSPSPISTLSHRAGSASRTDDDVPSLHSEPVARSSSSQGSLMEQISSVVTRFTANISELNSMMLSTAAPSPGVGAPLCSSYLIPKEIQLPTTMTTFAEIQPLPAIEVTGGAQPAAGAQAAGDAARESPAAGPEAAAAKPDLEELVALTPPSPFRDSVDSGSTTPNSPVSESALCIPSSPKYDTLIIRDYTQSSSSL

pEC50 | SMILES
7.72 | COc1cc(Br)cc(C(=O)N2CCN(C(=O)c3ncn(-c4cccc(Cl)c4)n3)C(C)(C)C2)n1 [Example 12]
7.30 | COc1cccc(C(=O)N2CCN(C(=O)c3ncn(-c4cccc(C)c4)n3)C(C)(C)C2)n1 [Example 7, [4-(6-Methoxy-pyridine-2-carbonyl)-2,2-dimethyl-piperazin-1-yl]-[1-m-tolyl-1H-[1,2,4]triazol-3yl]-methanone]
6.79 | CC1(C)CN(C(=O)c2cc(Cl)ccc2F)CCN1C(=O)c1ncn(-c2cccc(Cl)c2)n1 [Example 73]
5.96 | COc1cccc(C(=O)N2CCN(C(=O)c3ncn(-c4cccc(Cl)c4)n3)CC2(C)C)n1 [Example 257, {4-[1-(3-Chloro-phenyl)-1H-[1,2,4]triazole-3-carbonyl]-2,2-dimethyl-piperazin-1-yl}-(6-methoxy-pyridin-2-yl)-methanone]
7.06 | COc1cc(C(=O)N2CCN(C(=O)c3ncn(-c4cccc(Cl)c4)n3)C(C)(C)C2)ccc1C [Example 46]
7.48 | Cc1cccc(-n2cnc(C(=O)N3CCN(C(=O)c4cccc(Cl)c4)CC3(C)C)n2)c1 [Example 188]
6.86 | Cc1cc2cc(C(=O)N3CCN(C(=O)c4ncn(-c5cccc(Cl)c5)n4)C(C)(C)C3)ccc2[nH]1 [Example 80]
6.55 | CC1(C)CN(C(=O)c2cccc(-c3ccn[nH]3)n2)CCN1C(=O)c1ncn(-c2cccc(Cl)c2)n1 [Example 94]
7.05 | CC1(C)CN(C(=O)c2c(Cl)nc3sccn23)CCN1C(=O)c1ncn(-c2cccc(Cl)c2)n1 [Example 63]
6.02 | Cc1ccc2oc(C(=O)N3CCN(C(=O)c4ncn(-c5cccc(Cl)c5)n4)CC3C)c(C)c2c1 (stereo not drawn) [Example 227]
6.07 | COc1ccnc(C(=O)N2CCN(C(=O)c3ncn(-c4cccc(Cl)c4)n3)C(C)(C)C2)c1 [Example 40]
7.27 | COc1cccc2c(C)c(C(=O)N3CCN(C(=O)c4ncn(-c5cccc(Cl)c5)n4)C(C)(C)C3)oc12 [Example 68]
6.92 | Cn1ccc2cc(C(=O)N3CCN(C(=O)c4ncn(-c5cccc(Cl)c5)n4)C(C)(C)C3)ccc21 [Example 82]
6.28 | Cc1c(C(=O)N2CCN(C(=O)c3ncn(-c4cccc(Cl)c4)n3)C(C)C2)oc2ccccc12 (stereo not drawn) [Example 279]
6.53 | Cc1ccc2oc(C(=O)N3CCN(C(=O)c4ncn(-c5cccc(Cl)c5)n4)C(C)(C)C3)c(C)c2c1 [Example 50]
6.84 | Cc1cc(C(=O)N2CCN(C(=O)c3ncn(-c4cccc(Cl)c4)n3)C(C)(C)C2)ccc1Cl [Example 65]

More lines, now with the values behind:

SMILES | pEC50
COc1cc(C(=O)N2CCN(C(=O)c3ncn(-c4ccccc4)n3)C(C)C2)ccc1C (stereo not drawn) [Example 292] | 5.92
CCC1CN(C(=O)c2ncn(-c3cccc(F)c3)n2)CCN1C(=O)c1cccc(OC)n1 (stereo not drawn) [Example 259] | 6.64
COc1nc(C(=O)N2CCN(C(=O)c3nnn(-c4cccc(Cl)c4)n3)C(C)(C)C2)cc2ccccc12 [Example 208] | 6.90
CC1CN(C(=O)c2cc(Br)c(Br)o2)CCN1C(=O)c1ncn(-c2cccc(Cl)c2)n1 (stereo not drawn) [Example 266] | 6.27
COc1cccc(C(=O)N2CCN(C(=O)c3ncn(-c4cccc(Cl)c4)n3)[C@@H](C)C2)n1 [Example 300, (S)-{4-[1-(3-Chloro-phenyl)-1H-[1,2,4]triazole-3-carbonyl]-3-methyl-piperazin-1-yl}-(6-methoxy-pyridin-2-yl)-methanone] | 6.81
CC1(C)CN(C(=O)c2cc3ccccc3c(C3CC3)n2)CCN1C(=O)c1ncn(-c2ccccc2)n1 [Example 203] | 7.21
CC1CN(C(=O)c2ncn(-c3cccc(Cl)c3)n2)CCN1C(=O)c1ccc(Cl)s1 (stereo not drawn) [Example 231] | 5.75
Cc1cccc(-n2cnc(C(=O)N3CCN(C(=O)c4cc(Br)c(Br)o4)[C@@H](C)C3)n2)c1 [Example 255, (S)-[4-(4,5-Dibromo-furan-2-carbonyl)-3-methyl-piperazin-1-yl]-(1-m-tolyl-1H-[1,2,4]triazol-3-yl)-methanone] | 6.82
COc1ccc2oc(C)c(C(=O)N3CCN(C(=O)c4ncn(-c5ccccc5)n4)C(C)C3)c2c1 (stereo not drawn) [Example 291] | 7.33
COc1ccc2oc(C)c(C(=O)N3CCN(C(=O)c4ncn(-c5ccccc5)n4)CC3C)c2c1 (stereo not drawn) [Example 242] | 6.94
CC1CN(C(=O)c2ncn(-c3cccc(Cl)c3)n2)CCN1C(=O)c1cn(C)c2ccccc12 (stereo not drawn) [Example 230] | 6.24
Cc1oc2ccccc2c1C(=O)N1CCN(C(=O)c2ncn(-c3cccc(Cl)c3)n2)C(C)C1 (stereo not drawn) [Example 275] | 6.77
COc1cccc(C(=O)N2CCN(C(=O)c3ncn(-c4cccc(Cl)c4)n3)CC2C)n1 (stereo not drawn) [Example 211] | 6.58
COc1cc(C(=O)N2CCN(C(=O)c3ncn(-c4cccc(C)c4)n3)C(C)C2)ccc1C (stereo not drawn) [Example 288] | 6.43
CC1(C)CN(C(=O)c2cccc(C3CC3)n2)CCN1C(=O)c1nnn(-c2ccccc2)n1 [Example 180, [4-(6-Cyclopropyl-pyridine-2-carbonyl)-2,2-dimethyl-piperazin-1-yl]-(2-phenyl-2H-tetrazol-5-yl)-methanone] | 7.80
CC1CN(C(=O)c2ncn(-c3cccc(Cl)c3)n2)CCN1C(=O)c1ccc2ccn(C)c2c1 (stereo not drawn) [Example 222] | 6.53
CC1(C)CN(C(=O)c2cccc(C3CCC3)c2)CCN1C(=O)c1ncn(-c2ccccc2)n1 [Example 151] | 7.80
COCC1(C)CN(C(=O)c2cccc(OC)n2)CCN1C(=O)c1ncn(-c2cccc(Cl)c2)n1 (stereo not drawn) [Example 311] | 6.24
Cn1c(CC2CCCC2)nc2ccc(C(=O)N3CCN(C(=O)c4ncn(-c5ccccc5)n4)C(C)(C)C3)cc21 [Example 179, [4-(2-cyclopentylmethyl-3-methyl-3H-benzoimidazole-5-carbonyl)-2,2-dimethyl-piperazin-1-yl]-(1-phenyl-1H-[1,2,4]-triazol-3-yl)-methanone] | 6.82
O=C(c1cccc(Cl)c1)N1CCN(C(=O)c2ncn(-c3cccc(Cl)c3)n2)C2(CCCC2)C1 [Example 308] | 6.44
COc1cccc(C(=O)N2CCN(C(=O)c3nnn(-c4cccc(C)c4)n3)CC2C)n1 (stereo not drawn) [Example 243, (6-Methoxy-pyridin-2-yl)-[2-methyl-4-(2-m-tolyl-2H-tetrazole-5-carbonyl)-piperazin-1-yl]-methanone] | 6.44
CCCOc1cccc(C(=O)N2CCN(C(=O)c3ncn(-c4cccc(Cl)c4)n3)CC2C)c1 (stereo not drawn) [Example 219] | 6.45
Cc1c(C(=O)N2CCN(C(=O)c3ncn(-c4ccccc4)n3)C(C)(C)C2)n(C)c2ccccc12 [Example 110] | 6.85
CC1CN(C(=O)c2sc3ccccc3c2Cl)CCN1C(=O)c1ncn(-c2cccc(Cl)c2)n1 (stereo not drawn) [Example 271] | 6.21
CC1CN(C(=O)c2ccc(Cl)s2)CCN1C(=O)c1ncn(-c2cccc(Cl)c2)n1 (stereo not drawn) [Example 273] | 5.88
CC1CN(C(=O)c2cn(C)c3ccccc23)CCN1C(=O)c1ncn(-c2cccc(Cl)c2)n1 (stereo not drawn) [Example 276] | 6.58
CC1CN(C(=O)c2cccc3c2OCO3)CCN1C(=O)c1ncn(-c2cccc(Cl)c2)n1 (stereo not drawn) [Example 286] | 5.88
COc1cccc(C(=O)N2CCN(C(=O)c3ncn(-c4ccccc4)n3)C(C)(C)C2)c1 [Example 122] | 6.67
COCC1(C)CN(C(=O)c2cccc(OC)n2)CCN1C(=O)c1ncn(-c2cccc(C)c2)n1 (stereo not drawn) [Example 310] | 6.10
